Target: interaction of human SOS1 (SOS1) with human K-RasG12C (Homo sapiens (Human), UniProt Q07889)
Test: Biochemical assay: hK-RasG12C interaction assay with hSOS1 (HTRF)
Type: binding
Conditions: GST-hK-RasG12C with His-hSOS1, 60 min incubation at 20° C., mean, read-out: K-RasG12C - SOS interaction assay IC50 (mean)
Experimental: Biochemical Assay: hK-RasG12C Interaction Assay with hSOS1 This assay quantifies the equilibrium interaction of human SOS1 (SOS1) with human K-Ras^G12^C (K-RasG12C). Detection of the interaction is achieved by measuring homogenous time-resolved fluorescence resonance energy transfer (HTRF) from antiGST-Europium (FRET donor) bound to GST-K-RasG12C to anti-6His-XL665 bound to His-tagged hSOS1 (FRET-acceptor). The assay buffer containes 5 mM HEPES pH 7.4 (Applichem), 150 mM NaCl (Sigma), […] (Promega), 1 mM DTT (Thermofisher), 0.05% BSA Fraction V, pH 7.0, (ICN Biomedicals), 0.0025% (v/v) Igepal (Sigma) and 100 mM KF (FLUKA). The expression and purification of N-terminally GST-tagged human K-RasG12C (termed GST-hK-RasG12C) and N-terminally His-tagged human SOS1 (termed His10-hSOS1) is described in WO 2019/201848, page 220 line 12-34 and page 222, line 13-25 (expression) and page 222, line 26 to page 223, line 17 (purification). Concentrations of protein batches used are optimized to be within the linear range of the HTRF signal. A Ras working solution is prepared in assay buffer containing typically 10 nM GST-hK-RasG12C and 2 nM antiGST-Eu(K) (Cisbio, France). A SOS1 working solution is prepared in assay buffer containing typically 20 nM His-hSOS1 and 10 nM anti-6His-XL665 (Cisbio, France). An inhibitor control solution is prepared in assay buffer containing nM anti-6His-XL665 without SOS1. Fifty nl of a 100-fold concentrated solution of the test compound in DMSO are transferred into a black microtiter test plate (384 or 1536, Greiner Bio-One, Germany). For this, either a Hummingbird liquid handler (Digilab, MA, USA) or an Echo acoustic system (Labcyte, CA, USA) is used. All steps of the assay are performed at 20° C. A volume of 2.5 μl of the Ras working solution is added to all wells of the test plate using a Multidrop dispenser (Thermo Labsystems). After 2 min preincubation, 2.5 μl of the SOS1 working solution are added to all wells except for those wells at the side of the test plate that are subsequently filled with 2.5 μl of the inhibitor control solution. After 60 min incubation the fluorescence is measured with a Pherastar (BMG, Germany) using the HTRF module (excitation 337 nm, emission 1: 620 nm, emission 2: 665 nm). The ratiometric data (emission 2 divided by emission 1) are normalized using the controls (DMSO=0% inhibition, inhibition control wells with inhibitor control solution=100% inhibition). Compounds are tested in duplicates at up to 11 concentrations (for 20 μM, 5,7 μM, 1,6 μM, 0.47 μM, 0.13 μM, 38 nM, 11 nM, 3.1 nM, 0.89 nM, 0.25 nM and 0.073 nM). IC50 values are calculated by 4-Parameter fitting using a commercial software package (Genedata Screener, Switzerland).

Chain of interaction of human SOS1 (SOS1) with human K-RasG12C (Q07889 564-1049 limits assumed): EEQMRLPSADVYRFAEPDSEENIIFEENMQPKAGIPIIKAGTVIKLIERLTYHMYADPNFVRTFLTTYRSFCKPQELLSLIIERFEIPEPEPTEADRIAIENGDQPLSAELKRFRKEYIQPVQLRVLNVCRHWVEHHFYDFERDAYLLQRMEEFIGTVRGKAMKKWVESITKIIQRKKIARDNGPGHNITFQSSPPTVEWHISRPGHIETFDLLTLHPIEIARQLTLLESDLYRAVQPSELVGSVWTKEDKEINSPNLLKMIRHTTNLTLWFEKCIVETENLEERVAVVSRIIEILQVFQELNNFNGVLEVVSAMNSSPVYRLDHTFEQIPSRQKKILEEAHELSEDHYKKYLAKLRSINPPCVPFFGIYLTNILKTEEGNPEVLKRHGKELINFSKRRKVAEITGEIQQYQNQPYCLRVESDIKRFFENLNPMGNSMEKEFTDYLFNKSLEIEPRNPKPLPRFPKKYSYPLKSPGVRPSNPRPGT

Cc1nc(N[C@H](C)c2cccc(C(F)(F)C(C)(C)O)c2F)c2cc(P(C)(C)=O)nc(O)c2n1 [Example 26, 4-({(1R)-1-[3-(1,1-difluoro-2-hydroxy-2-methylpropyl)-2-fluorophenyl]ethyl}amino)-6-(dimethylphosphoryl)-2-methylpyrido[3,4-d]pyrimidin-8-ol]
IC50: 9.18 nM

Cc1nc(N[C@H](C)c2cccc(C(F)F)c2F)c2cc(P3(=O)CCN(C(=O)C4(F)CC4)CC3)ncc2n1 [Example 151, 4-[4-{{(1R)-1-[3-(difluoromethyl)-2-fluorophenyl]ethyl}amino)-2-methylpyrido[3,4-d]pyrimidin-6-yl]-1-(1-fluorocyclopropane-1-carbonyl)-1,4lambda^5-azaphosphinan-4-one]
IC50: 12.2 nM

[2H]C([2H])(O)C(F)(F)c1cccc([C@@H](C)Nc2nc(C)nc3cnc(P(C)(C)=O)cc23)c1F [Example 60, 2-{3-[(1R)-1-{[6-(dimethylphosphoryl)-2-methylpyrido[3,4-d]pyrimidin-4-yl]amino}ethyl]-2-fluorophenyl}-2,2-difluoro(^2H2)ethan-1-ol]
IC50: 13.5 nM

Cc1nc(N[C@H](C)c2cccc(C(F)F)c2F)c2cc(P3(=O)CCN(C(=O)C4CC(F)(F)C4)CC3)ncc2n1 [Example 160, 1-(3,3-difluorocyclobutane-1-carbonyl)-4-[4-({(1R)-1-[3-(difluoromethyl)-2-fluorophenyl]ethyl}amino)-2-methylpyrido[3,4-d]pyrimidin-6-yl]-1,4lambda^5-azaphosphinan-4-one]
IC50: 7.87 nM

Cc1nc(N[C@H](C)c2cccc(C(F)F)c2F)c2cc(P(C)(C)=O)c(C(F)(F)F)nc2n1 [Example 125, N-{(1R)-1-[3-(difluoromethyl)-2-fluorophenyl]ethyl}-6-(dimethylphosphoryl)-2-methyl-7-(trifluoromethyl)pyrido[2,3-d]pyrimidin-4-amine]
IC50: 44.3 nM

Cc1nc(N[C@H](C)c2cccc(C(F)(F)C(C)O)c2F)c2cc(P(C)(=O)C(C)C)ncc2n1 (single isomer, unassigned) [Example 81, (2R*)-1,1-difluoro-1-{2-fluoro-3-[(1R)-1-({2-methyl-6-[methyl(propan-2-yl)phosphoryl]pyrido[3,4-d]pyrimidin-4-yl}amino)ethyl]phenyl}propan-2-ol]
IC50: 10.2 nM

Cc1nc(N[C@H](C)c2cccc(C(F)F)c2F)c2cc(P(C)(=O)C(C)C)ncc2n1 (single isomer, unassigned) [Example 116]
IC50: 57.6 nM

CCP(C)(=O)c1cc2c(N[C@H](C)c3cccc(C(F)F)c3F)nc(C)nc2cn1 (stereo partly drawn) [Example 117, N-{(1R)-1-[3-(difluoromethyl)-2-fluorophenyl]ethyl}-6-[ethyl(methyl)phosphoryl]-2-methylpyrido[3,4-d]pyrimidin-4-amine]
IC50: 56.9 nM

Cc1nc(N[C@H](C)c2cccc(C(F)(F)C(C)(C)O)c2F)c2cc(P(C)(C)=O)nc(C)c2n1 [Example 11, 1-{3-[(1R)-1-{[6-(dimethylphosphoryl)-2,8-dimethylpyrido[3,4-d]pyrimidin-4-yl]amino}ethyl]-2-fluorophenyl}-1,1-difluoro-2-methylpropan-2-ol]
IC50: 52.9 nM

Cc1nc(N[C@H](C)c2cccc(C(F)F)c2F)c2cc(P3(=O)CCCC3)ccc2n1 [Example 127, 1-[4-{{(1R)-1-[3-(difluoromethyl)-2-fluorophenyl]ethyl}amino)-2-methylquinazolin-6-yl]-1lambda^5-phospholan-1-one]
IC50: 23.4 nM

CC(=O)N1CCP(=O)(c2cnc3nc(C)nc(N[C@H](C)c4cccc(C(F)(F)F)c4C)c3c2)CC1 [Example 147, 1-acetyl-4-[2-methyl-4-({(1R)-1-[2-methyl-3-(trifluoromethyl)phenyl]ethyl}amino)pyrido[2,3-d]pyrimidin-6-yl]-1,4lambda^5-azaphosphinan-4-one]
IC50: 4.51 nM

Cc1nc(N[C@H](C)c2cccc(C(F)F)c2F)c2cc(P3(=O)CCN(C)CC3)ncc2n1 [Example 52, 4-[4-({(1R)-1-[3-(difluoromethyl)-2-fluorophenyl]ethyl}amino)-2-methylpyrido[3,4-d]pyrimidin-6-yl]-1-methyl-1,4lambda^5-azaphosphinan-4-one]
IC50: 35.5 nM

Cc1nc(N[C@H](C)c2cccc(C(F)(F)F)c2F)c2cc(P(C)(C)=O)ncc2n1 [Example 55, 6-(dimethylphosphoryl)-N-{(1R)-1-[2-fluoro-3-(trifluoromethyl)phenyl]ethyl}-2-methylpyrido[3,4-d]pyrimidin-4-amine]
IC50: 26.2 nM

Cc1nc(N[C@H](C)c2cccc(C(F)(F)F)c2C)c2cc(P3(=O)CCN(C(=O)c4cnn(C)c4)CC3)ncc2n1 [Example 175, 4-[2-methyl-4-{{(1R)-1-[2-methyl-3-(trifluoromethyl)phenyl]ethyl}amino)pyrido[3,4-d]pyrimidin-6-yl]-1-(1-methyl-1H-pyrazole-4-carbonyl)-1,4lambda^5-azaphosphinan-4-one]
IC50: 9.07 nM

CC(=O)N1CCP(=O)(c2cc3c(N[C@H](C)c4cccc(C(F)(F)F)c4C)nc(C)nc3c(C3CC3)n2)CC1 [Example 35, 1-acetyl-4-[8-cyclopropyl-2-methyl-4-({(1R)-1-[2-methyl-3-(trifluoromethyl)phenyl]ethyl}amino)pyrido[3,4-d]pyrimidin-6-yl]-1,4lambda^5-azaphosphinan-4-one]
IC50: 21.5 nM

Cc1nc(N[C@H](C)c2cccc(C(F)(F)F)c2)c2cc(P3(=O)CCN(C(=O)C(F)F)CC3)ncc2n1 [Example 205]
IC50: 9.64 nM

CC(=O)N1CCP(=O)(c2ccc3nc(C)nc(N[C@H](C)c4cccc(C(F)(F)F)c4C)c3c2)CC1 [Example 197]
IC50: 7.4 nM

Cc1nc(N[C@H](C)c2cccc(C(F)F)c2F)c2cc(P3(=O)CCN(C(=O)c4cnn(C)c4)CC3)ncc2n1 [Example 161, 4-[4-{{(1R)-1-[3-(difluoromethyl)-2-fluorophenyl]ethyl}amino)-2-methylpyrido[3,4-d]pyrimidin-6-yl]-1-(1-methyl-1H-pyrazole-4-carbonyl)-1,4lambda^5-azaphosphinan-4-one]
IC50: 13.4 nM

CCCCC(C)(O)C(F)(F)c1cccc([C@@H](C)Nc2nc(C)nc3cnc(P(C)(C)=O)cc23)c1F (mixture of isomers) [Example 23, (2RS)-1-{3-[(1R)-1-{[6-(dimethylphosphoryl)-2-methylpyrido[3,4-d]pyrimidin-4-yl]amino}ethyl]-2-fluorophenyl}-1,1-difluoro-2-methylhexan-2-ol]
IC50: 12.4 nM

CC(=O)N1CCP(=O)(c2cc3c(N[C@H](C)c4cccc(C(F)(F)C(=O)O)c4F)nc(C)nc3cn2)CC1 [Example 43, {3-[(1R)-1-{[6-(1-acetyl-4-oxo-1,4lambda^5-azaphosphinan-4-yl)-2-methylpyrido[3,4-d]pyrimidin-4-yl]amino}ethyl]-2-fluorophenyl}(difluoro)acetic acid]
IC50: 375 nM

Cc1nc(N[C@H](C)c2cccc(C(F)(F)C(C)(C)O)c2F)c2cc(P3(=O)CCCC3)cnc2n1 [Example 16, 1-[4-({(1R)-1-[3-(1,1-difluoro-2-hydroxy-2-methylpropyl)-2-fluorophenyl]ethyl}amino)-2-methylpyrido[2,3-d]pyrimidin-6-yl]-1lambda^5-phospholan-1-one]
IC50: 10.6 nM

Cc1nc(N[C@H](C)c2cccc(C(F)(F)F)c2C)c2cc(P3(=O)CCN(C(=O)C(F)F)CC3)ncc2n1 [Example 203]
IC50: 5.65 nM

Cc1nc(N[C@H](C)c2cccc(C(F)(F)F)c2C)c2cc(P3(=O)CCN(C(=O)NC4CC4)CC3)ncc2n1 [Example 184]
IC50: 5.62 nM

CC(=O)N1CCP(=O)(c2cc3c(N[C@H](C)c4cccc(C(F)(F)C(=O)N(C)C)c4F)nc(C)nc3cn2)CC1 [Example 45, 2-{3-[(1R)-1-{[6-(1-acetyl-4-oxo-1,4lambda^5-azaphosphinan-4-yl)-2-methylpyrido[3,4-d]pyrimidin-4-yl]amino}ethyl]-2-fluorophenyl}-2,2-difluoro-N,N-dimethylacetamide]
IC50: 17 nM

— patent US20240247015A1, “PHOSPHORUS DERIVATIVES AS NOVEL SOS1 INHIBITORS” (BAYER AKTIENGESELLSCHAFT, priority 2021, published 2024)
